From US20140038953A1, “COMPOSITIONS AND METHODS FOR CARDIOVASCULAR DISEASE” (THE GENERAL HOSPITAL CORPORATION, priority 2011, published 2014)

Tested on: HepG2 cells
Test: ApoB-100 secretion in HepG2 cells (ELISA)
Assay type: cell-based, human
Conditions: compound 13 100 nM, atorvastatin 1 nM, ALK3-Fc 400 ng/mL
Experimental: Hepatoma G2 (HepG2) cells and human aortic endothelial cells (HAECs) were purchased from the American type culture collection (Manassas, Va.). HepG2 cells were maintained in Eagle's Minimum Essential Medium (EMEM) supplemented with 10% fetal bovine serum, 100 units/ml of penicillin, 0.1 mg/ml of streptomycin and glutamine. HAECs were cultured in endothelial cell basal medium (EBM 2) supplemented with the EBM2 bullet kit (Lonza, Basel, Switzerland). For experiments, cells were seeded into 6 or 12-well plates (BD Falcon, Franklin Lakes, N.J.) at a concentration of 0.5×10^6 cells per 5 mL of media. HAECs were maintained in EBM 2 with 0.1% FBS without additional growth factors for all experiments. HepG2 cells were grown to 70% confluence before they were incubated in EMEM enriched with 0.1% FBS. ApoB-100 measurements were performed in supernatants from HepG2 that had been incubated in EMEM containing 0.5% bovine serum albumin using a commercially available Human ApoB-100 ELISA kit (Mabtech AB, Nacka Strand, Sweden). BMP2 protein measurements were performed in supernatants from HAECs that had been incubated in EBM2 containing 0.1% FBS using a BMP2 ELISA kit (R&D Systems).

CC(C)c1c(C(=O)Nc2ccccc2)c(-c2ccccc2)c(-c2ccc(F)cc2)n1CC[C@@H](O)C[C@@H](O)CC(=O)O [Atorvastatin, atorvastatin, reference compound]
BMP2-induced ApoB-100 secretion (BMP2 100 ng/mL): did not prevent the induction of ApoB-100 synthesis by BMP2 | basal ApoB-100 secretion (absence of BMP2): reduced basal apolipoprotein B100 (ApoB-100) secretion | basal ApoB-100 secretion (absence of BMP2) (listed as atorvastatin): reduced ApoB-100 production in the absence of BMP2
